Assay results taken from article PMC5062570 (Nature Communications, 2016).
Entries after “also recorded” stand apart in the source; their conditions may differ.

Experiments:
[1] = system: aspartyl proteases (BACE2, cathepsin D, cathepsin E, pepsin and renin); details: assays with purified proteins; cited from earlier work
[2] = system: mRNA levels (CTSD, CTSB, CTSF, BACE1, GBA, TFEB) in ARPE-19 cells; assay: qRT-PCR of inhibitor-treated ARPE-19 cells; type: cell-based, human; details: 7 days
CatE = biological target: T1, CatE (Homo sapiens, UniProt P14091); assay: CatE purified enzyme fluorescence polarization assay; type: biochemical
T1 construct: purchased Creative BioMart CTSE-255H
T1 sequence (P14091 54-396): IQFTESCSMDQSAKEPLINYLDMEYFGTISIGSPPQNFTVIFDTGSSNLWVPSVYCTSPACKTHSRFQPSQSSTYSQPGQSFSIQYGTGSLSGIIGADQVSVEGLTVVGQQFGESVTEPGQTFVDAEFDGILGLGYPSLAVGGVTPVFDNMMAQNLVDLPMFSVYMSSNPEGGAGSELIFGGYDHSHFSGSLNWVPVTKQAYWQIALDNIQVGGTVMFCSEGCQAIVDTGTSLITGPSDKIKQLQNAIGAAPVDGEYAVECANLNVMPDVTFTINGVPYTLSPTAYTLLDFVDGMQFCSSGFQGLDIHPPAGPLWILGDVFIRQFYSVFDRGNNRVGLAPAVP
Experimental: Purified enzyme inhibition of BACE1, BACE2, CatD and CatE was determined using fluorescence polarization (FP) assays. Briefly, purified enzymes were treated with test compounds (1% DMSO, 37 °C) in the presence of synthetic peptide substrates (150 nM) in 30 μl total volume of NaOAc buffer (100 mM, pH 4.5, 0.0001% Tween-20) in a 384-well plate. After incubation, reactions were stopped and substrate captured by the addition of 1.5 μM streptavidin, and FP measured with an EnVision plate reader (PerkinElmer, excitation 485 nm, emission 530 nm). […] BACE2 activity was assessed with 0.5 nM recombinant BACE2 (R&D Systems 4097-AS) and the same synthetic substrate used for BACE1, with a 1 h incubation time. […] CatE activity was assessed with 1.0 nM recombinant CatE (Creative BioMart CTSE-255H) and the same synthetic substrate used for CatD, with a 1.5 h incubation time.

BACE2 = details: purified aspartyl proteases; not previously disclosed

Cc1cc([C@H]2C[C@H]3[C@@H](C)SC(N)=N[C@@]3(c3ccc(F)cc3F)CO2)on1 [PF-9283]
Selectivity for BACE1 over cathepsins D and E [1]: more than 200 fold
mRNA level changes (qRT-PCR) [2]: did not display changes in mRNA levels; also recorded: no changes in CatD mRNA levels
IC50 (CatE): 24 µM
Fold selectivity for BACE1 over BACE2 (BACE2): 1.9 fold
